Laboratory results published in PubChem BioAssay (NCI).
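All cell lines were grown in 96-well plates and treated with compound for 48 hours. GI50 is the concentration that inhibits growth by half. TGI: total growth inhibition.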

Tests used:
Assay in all cases: NCI anticancer screen, dose series, 48 h
[1] = tested on: A498 renal
[2] = tested on: MOLT-4 leukemia
[3] = tested on: NCI-H23 lung
[4] = tested on: OVCAR-3 ovarian
[5] = tested on: RPMI-8226 leukemia
[6] = tested on: SF-268 CNS
[7] = tested on: SF-539 CNS
[8] = tested on: SNB-75 CNS
[9] = tested on: U251 CNS
[10] = tested on: UO-31 renal

Row | SMILES | GI50 [1] [µM] | TGI [1] [µM] | GI50 [2] [µM] | TGI [2] [µM] | GI50 [3] [µM] | TGI [3] [µM] | GI50 [4] [µM] | TGI [4] [µM] | GI50 [5] [µM] | TGI [5] [µM] | GI50 [6] [µM] | TGI [6] [µM] | GI50 [7] [µM] | TGI [7] [µM] | GI50 [8] [µM] | TGI [8] [µM] | GI50 [9] [µM] | TGI [9] [µM] | GI50 [10] [µM] | TGI [10] [µM]
1 | CCCCCCNC(=O)n1cc(F)c(=O)[nH]c1=O | 18 | > 100 | 7.28 | 44.2 | 6.26 | 49.1 | 11.1 | > 100 | 2.38 | 32.2 | 9.07 | 87.9 | 0.514 | 15.1 | 7.51 | 43 | 4.27 | 17.5 | – | –
2 | Cc1nn(CNc2ccccc2C(F)(F)F)c(=S)n1/N=C/c1ccc(F)cc1 | > 100 | > 100 | 46.6 | > 100 | > 100 | > 100 | > 100 | > 100 | 48.5 | > 100 | > 100 | > 100 | > 100 | > 100 | 29.5 | 91.3 | – | – | > 100 | > 100
3 | CC(C)(C)n1cc(-c2ccnc(NCCCNS(=O)(=O)c3ccc(Br)cc3)c2)c(-c2cccc(O)c2)n1 | 1.33 | 3.47 | 2.3 | 6.74 | 1.83 | 3.72 | 2.15 | 4.15 | – | – | 2.4 | 6.48 | 1.7 | 3.17 | 1.76 | 4.11 | 1.65 | 3.66 | 1.66 | 3.89
4 | CCCCN(CC)c1ncnc2ccc(Br)cc12 | 10.2 | 23.6 | 2.45 | > 100 | 18.8 | 44.4 | 15.8 | 32.5 | 3.71 | 22.1 | 19.1 | 68 | – | – | – | – | 18.2 | 44.9 | 19.9 | 98.7
5 | CSc1nsc(S/C=C\C(=O)c2ccc(C)cc2)n1 | 0.0153 | 0.169 | 1.61 | > 51.5 | 17.3 | 34.6 | 17 | 34.5 | 43 | > 100 | 21.5 | > 58.5 | 19 | 36.2 | – | – | 17.2 | 41.5 | 15.1 | > 62.8
6 | CC1(C)C(=O)C=CC2(C)C1CC(O)C1(C)C2CCC2(C)C(c3ccoc3)OC(=O)C3OC321 (stereo not given) | – | 28.8 | – | 27.2 | – | 28.6 | – | 36 | – | 47.9 | – | – | – | – | – | 39.5 | – | 40.5 | – | 25.8
7 | Cc1ccc(/C=C2/NC(=S)SC2=O)cc1 | – | – | – | > 100 | – | 64.8 | – | > 100 | – | – | – | – | – | > 100 | – | 80.8 | – | > 100 | – | 93.1
8 | COc1cc(C2c3cc4c(cc3[C@@H](OCCN(C)C)C3COC(=O)[C@H]23)OCO4)cc(OC)c1O (stereo not given in full) | – | 0.713 | 0.0105 | 0.0878 | – | 1.18 | – | 5.15 | – | – | – | 3.83 | – | 0.702 | – | 3.75 | – | 1.27 | – | 2.04
9 | CCOC(=O)c1c(-c2ccccc2)c(C(OC(c2ccccc2)c2c(-c3ccccc3)c(C(=O)OCC)n3ccccc23)c2ccccc2)c2ccccn12 (stereo not given) | – | – | – | > 100 | – | > 100 | – | > 100 | – | > 100 | – | > 100 | – | – | – | > 100 | – | – | – | > 100
10 | COc1cc(C2c3cc4c(cc3[C@@H](N(C)C)[C@H]3COC(=O)C23)OCO4)cc(OC)c1O (stereo not given in full) | – | 56 | – | > 100 | – | > 100 | – | – | – | > 100 | – | > 100 | – | 53.8 | – | > 100 | – | > 100 | – | > 100
11 | COC(=O)c1ccc(CN2C(=O)C(Cl)=C(Nc3ccc(OC)c(Cl)c3)C2=O)cc1 | > 50 | > 50 | 5.83 | 49 | 14.4 | 39.3 | 21.6 | > 50 | > 50 | > 50 | 15.4 | > 50 | – | – | – | – | 7.26 | 19.5 | 31.8 | > 50
12 | CN1c2ccccc2S(=O)(=O)n2c(CCc3ccccc3)nnc21 | – | > 100 | – | > 100 | – | > 100 | – | > 100 | – | – | – | > 100 | – | > 100 | – | – | – | > 100 | – | > 100
13 | CC1(O)CCC2(C)C(=O)C1(C)CCC21OCCO1 (stereo not given) | – | – | – | > 100 | – | > 100 | – | > 100 | – | > 100 | – | > 100 | – | > 100 | – | – | – | > 100 | – | > 100
14 | CCn1c(=O)c2c3ccc(OC(C)=O)cc3[nH]c2c2ccc(OC(C)=O)cc21 | – | – | – | 74.5 | – | > 100 | – | > 100 | – | – | – | > 100 | – | > 100 | – | 89.5 | – | > 100 | – | > 100
15 | C/C=C(/C)c1cnc(CC(C)C)c(=O)[nH]1 | – | > 100 | – | > 100 | – | > 100 | – | > 100 | – | > 100 | – | > 100 | – | – | – | > 100 | – | > 100 | – | > 100
16 | COc1cc2c3c(ncc2c(OC)c1OC)-c1cc2c(cc1C3)OCO2 | – | – | – | – | – | – | – | – | 33.4 | > 100 | – | – | – | – | > 100 | > 100 | 27.6 | > 100 | 19.8 | 68
17 | CC1=NOC(=O)C1N=Nc1ccc(Br)c(C)c1 (stereo not given) | – | 36.2 | – | 45.3 | – | 44.2 | – | 33.6 | – | 40.7 | – | 47.6 | – | 44.6 | – | 60.5 | – | 37.8 | – | –
18 | C[C@]12CC[C@H]3[C@@H](CC[C@]4(O)C[C@@H](O)CC[C@]34CO)[C@@]1(O)CC[C@@H]2C1=CC(=O)OC1 | – | 5.1 | – | 0.726 | – | 4.98 | – | 3.21 | – | 6.83 | – | 3.25 | – | 2.41 | – | 34.3 | – | – | – | –
19 | COC(=O)C(=O)C(C(=O)C(N)=O)c1nc2ccc(C(=O)c3ccccc3)cc2[nH]c1=O (stereo not given) | – | > 100 | – | > 100 | – | – | – | > 100 | – | > 100 | – | > 100 | – | > 100 | – | > 100 | – | > 100 | – | –
20 | NC(=O)c1csc(C2CCC(CO)O2)n1 (stereo not given) | – | > 100 | – | > 100 | – | > 100 | – | > 100 | – | > 100 | – | > 100 | – | > 100 | – | – | – | > 100 | – | > 100
21 | N#Cc1c(C[n+]2ccccc2)c2ccccc2oc1=O | – | – | – | > 100 | – | > 100 | – | > 100 | – | > 100 | – | > 100 | – | > 100 | – | > 100 | – | > 100 | – | > 100
22 | CN(C)CCCc1c2ccccc2nc2ccc(Cl)cc12 | – | 34.2 | – | 44.5 | – | 84.8 | – | 57.7 | – | 96.2 | – | 33.3 | – | 33.6 | – | 31.8 | – | 24.8 | – | –
23 | COc1cc2c3c(c1OC)C1(C=CC(=O)C=C1)CC3NCC2 (stereo not given) | – | > 100 | – | > 100 | – | > 100 | – | > 100 | – | > 100 | – | > 100 | – | > 100 | – | > 100 | – | > 100 | – | –
24 | CCCCNC(=O)Oc1ccc(/C(=C(/CC)Cc2ccccc2)c2ccc(OCCN3CCCCCC3)cc2)cc1 | – | – | 21.8 | 72.7 | 59.1 | > 100 | 19.9 | 42.6 | 24 | 52.8 | 59.8 | > 100 | 17 | 31.3 | > 100 | > 100 | 18.7 | 35 | 18.9 | 46.3
25 | COc1cc(/C=C2\CC3C4CC=C5C[C@@H](O)CC[C@]5(C)C4CC[C@]3(C)C2=O)ccc1OCCCn1ccnc1 (stereo not given in full) | 25.5 | 44.2 | 20.8 | 41.8 | 18.1 | 32.9 | 19.1 | 39.4 | – | – | 18.2 | 40.2 | 15.7 | 31.1 | – | – | 15 | 32.8 | 19.6 | 55.2
26 | Cc1ccc2sc3ccc(N)cc3c(=O)c2c1 | – | > 100 | – | > 100 | – | > 100 | – | > 100 | – | – | – | > 100 | – | > 100 | – | – | – | > 100 | – | > 100
27 | COC(=O)[C@@]1(C)CCC[C@]2(C(=O)O)C3Cc4occc4[C@H](C)[C@@H]3CCC21 (stereo not given in full) | – | > 100 | – | > 100 | – | > 100 | – | > 100 | – | – | – | > 100 | – | > 100 | – | – | – | > 100 | – | > 100
28 | O=c1cc(-c2ccccn2)[nH]c2cc(F)ccc12 | – | – | – | > 100 | – | > 100 | – | > 100 | – | > 100 | 29.5 | > 100 | – | > 100 | – | > 100 | – | – | – | > 100
29 | CCCCCCCCCCCCCCCCCCNC(=O)OCC(CNS(=O)(=O)CCC[n+]1cccc2ccccc21)COC (stereo not given) | – | 64.9 | – | > 100 | – | 5.6 | – | 48.5 | – | > 100 | – | > 20.4 | – | 5.63 | – | 6.84 | – | – | – | > 75.1
